± gives the standard deviation of the averaged measurements.
Experiments:
[1] = compound: CCN(CC)CCNC(=O)c1c(C)[nH]c(/C=C2\C(=O)Nc3ccc(F)cc32)c1C [SUNITINIB]; assay: surviving fraction relative to DMSO-only wells; higher = less growth inhibition; settings: exposure time: 5 days
In short: (§1)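 Each tumour cell line was screened three times, and only lines with replicate Pearson r >0.7 and median Z' >0.3 were kept. Cells in log phase were seeded at 250–500 per well in 384-well plates, left 24 hours, then exposed continuously for five days to inhibitors at 0.5, 1, 5, 10, 50, 100, 500 and 1000 nM. Viability was read as CellTiter-Glo luminescence, with surviving fraction normalised to the median of DMSO-only wells.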

[2] = compound: CN(Cc1cnc2nc(N)nc(N)c2n1)c1ccc(C(=O)N[C@@H](CCC(=O)O)C(=O)O)cc1 [METHOTREXATE]; assay: as above; settings: exposure time: 5 days
In short: as §1

Row | Test System | surviving fraction ([1]; 0.5 nM) | surviving fraction ([1]; 1 nM) | surviving fraction ([1]; 5 nM) | surviving fraction ([1]; 10 nM) | surviving fraction ([1]; 50 nM) | surviving fraction ([1]; 100 nM) | surviving fraction ([1]; 500 nM) | surviving fraction ([1]; 1000 nM) | surviving fraction ([2]; 0.5 nM) | surviving fraction ([2]; 1 nM) | surviving fraction ([2]; 5 nM) | surviving fraction ([2]; 10 nM) | surviving fraction ([2]; 50 nM) | surviving fraction ([2]; 100 nM) | surviving fraction ([2]; 500 nM) | surviving fraction ([2]; 1000 nM)
1 | HUO3N1 BONE | 0.907 ± 0.082 | 0.88 ± 0.056 | 0.8743 ± 0.0058 | 0.82 ± 0.034 | 0.817 ± 0.035 | 0.801 ± 0.036 | 0.64 ± 0.0053 | 0.379 ± 0.016 | 1.05 ± 0.032 | 1.04 ± 0.059 | 1.084 ± 0.008 | 1.08 ± 0.016 | 0.991 ± 0.041 | 0.731 ± 0.029 | 0.51 ± 0.035 | 0.51 ± 0.046
2 | CAL72 BONE | 0.977 ± 0.016 | 0.995 ± 0.028 | – | – | – | 1.058 ± 0.0023 | 0.92 ± 0.0072 | 0.663 ± 0.044 | 1.04 ± 0.15 | 1.02 ± 0.13 | 1.03 ± 0.13 | 1.04 ± 0.11 | 0.641 ± 0.051 | 0.323 ± 0.061 | 0.301 ± 0.054 | 0.303 ± 0.068
3 | LNCAP PROSTATE | 1.12 ± 0.06 | 1.19 ± 0.081 | – | 1.01 ± 0.12 | 1.08 ± 0.093 | 1.14 ± 0.037 | 0.854 ± 0.11 | 0.45 ± 0.033 | 0.965 ± 0.021 | 0.957 ± 0.042 | 0.961 ± 0.059 | 0.851 ± 0.061 | 0.575 ± 0.011 | 0.5 ± 0.024 | 0.428 ± 0.018 | 0.422 ± 0.032
4 | G292 BONE | 0.903 ± 0.05 | 0.947 ± 0.037 | 0.938 ± 0.048 | 0.904 ± 0.027 | 0.909 ± 0.032 | 0.887 ± 0.061 | 0.553 ± 0.014 | 0.306 ± 0.0087 | 1.01 ± 0.048 | 1.07 ± 0.032 | 1.04 ± 0.069 | 1.06 ± 0.042 | 1.02 ± 0.042 | 1.04 ± 0.029 | 1.017 ± 0.0058 | 1.01 ± 0.024
5 | SCC003 HEADNECK | 0.834 ± 0.071 | 0.807 ± 0.064 | 0.851 ± 0.036 | 0.784 ± 0.058 | 0.97 ± 0.07 | 0.919 ± 0.017 | 0.495 ± 0.02 | 0.265 ± 0.034 | 1.09 ± 0.11 | 1.1 ± 0.033 | 1.16 ± 0.03 | 0.87 ± 0.052 | 0.594 ± 0.021 | 0.541 ± 0.026 | 0.549 ± 0.042 | 0.509 ± 0.037
6 | C33A CERVIX | 1.1 ± 0.13 | – | 1.18 ± 0.12 | – | 1.12 ± 0.049 | 1.22 ± 0.1 | 0.647 ± 0.081 | 0.339 ± 0.019 | 1.01 ± 0.15 | 0.936 ± 0.025 | 0.987 ± 0.11 | 0.519 ± 0.048 | 0.592 ± 0.075 | 0.585 ± 0.05 | 0.566 ± 0.034 | 0.557 ± 0.034

— the supplement of paper PMC6045584
